Settings: 283.15 K, Liquid, Vibrating tube method

CCCCCC(=O)OCC(COC(=O)CCCCC)(COC(=O)CCCCC)COC(=O)CCCCC [pentaerythritol tetrahexanoate]
Settings | mass density [kg/m3]
383.6 kPa | 1004.5
385.7 kPa | 1004.2
387.9 kPa | 1004.3
390 kPa | 1004.4
391.9 kPa | 1004.3
394 kPa | 1004.4
396.6 kPa | 1004.3
398.4 kPa | 1004.4
401 kPa | 1004.4
413.1 kPa | 1004.4
415.2 kPa | 1004.3
417.8 kPa | 1004.3
420.6 kPa | 1004.3
423.2 kPa | 1004.4
425.6 kPa | 1004.3
428.4 kPa | 1004.4
430.9 kPa | 1004.5
434 kPa | 1004.4
436.2 kPa | 1004.5
442.3 kPa | 1004.4
444.9 kPa | 1004.4
448.1 kPa | 1004.4
450.8 kPa | 1004.4
453.4 kPa | 1004.4
456.8 kPa | 1004.4
459.7 kPa | 1004.4
462.7 kPa | 1004.4
466 kPa | 1004.4
469.4 kPa | 1004.4
472.6 kPa | 1004.4
476 kPa | 1004.3
479.5 kPa | 1004.3
482.8 kPa | 1004.4
486 kPa | 1004.4
489.8 kPa | 1004.3
493.6 kPa | 1004.3
496.7 kPa | 1004.5
512 kPa | 1004.5
515.7 kPa | 1004.4
519.1 kPa | 1004.5
523.7 kPa | 1004.3
527.3 kPa | 1004.5
531.3 kPa | 1004.4
535.3 kPa | 1004.4
540.3 kPa | 1004.4
544 kPa | 1004.4
548.5 kPa | 1004.5
553 kPa | 1004.5
557 kPa | 1004.5
561.4 kPa | 1004.4
566.4 kPa | 1004.3
571.4 kPa | 1004.5
576.3 kPa | 1004.4
580.5 kPa | 1004.5
585.3 kPa | 1004.4
590.2 kPa | 1004.5
595.8 kPa | 1004.5
600.1 kPa | 1004.5
604.8 kPa | 1004.6
611.2 kPa | 1004.5
616.8 kPa | 1004.5
621.8 kPa | 1004.6
627.7 kPa | 1004.6
633.3 kPa | 1004.5
638.7 kPa | 1004.5
644.2 kPa | 1004.5
650.7 kPa | 1004.4
657.1 kPa | 1004.4
676 kPa | 1004.5
681.9 kPa | 1004.5
688 kPa | 1004.5
694.4 kPa | 1004.5
700.5 kPa | 1004.5
707.3 kPa | 1004.7
714.2 kPa | 1004.5
720.3 kPa | 1004.5
728 kPa | 1004.5
734.6 kPa | 1004.6
742.2 kPa | 1004.6
749.5 kPa | 1004.6
756.6 kPa | 1004.6
763.9 kPa | 1004.6
771.1 kPa | 1004.5
780.4 kPa | 1004.7
787.7 kPa | 1004.6
796.1 kPa | 1004.5
803.7 kPa | 1004.6
821.4 kPa | 1004.6
829.9 kPa | 1004.6
840 kPa | 1004.6
848.9 kPa | 1004.6
857.7 kPa | 1004.6
866.4 kPa | 1004.7
877.2 kPa | 1004.7
886.2 kPa | 1004.6
895.6 kPa | 1004.7
905.1 kPa | 1004.6
916.6 kPa | 1004.8
926.7 kPa | 1004.6
936.4 kPa | 1004.6
948.2 kPa | 1004.6
958.6 kPa | 1004.7
969.1 kPa | 1004.8
979.3 kPa | 1004.6
989.7 kPa | 1004.8
1001.9 kPa | 1004.8
1012 kPa | 1004.7
1024.5 kPa | 1004.7
1035.1 kPa | 1004.8
1045.3 kPa | 1004.6
1055.6 kPa | 1004.8
1066.1 kPa | 1004.7
1078.8 kPa | 1004.6
1089.1 kPa | 1004.8
1099.8 kPa | 1004.8
1113 kPa | 1004.8
1123.6 kPa | 1004.9
1134.7 kPa | 1004.8
1147.6 kPa | 1004.7
1158.7 kPa | 1004.7
1170 kPa | 1004.8
1183.6 kPa | 1004.9
1194.7 kPa | 1004.7
1206.3 kPa | 1004.9
1218.1 kPa | 1004.8
1229.9 kPa | 1004.9
1241.6 kPa | 1004.9
1258.7 kPa | 1005
1270.9 kPa | 1004.9
1283.6 kPa | 1004.8
1298.2 kPa | 1004.8
1310.3 kPa | 1004.8
1322.8 kPa | 1004.8
1338.1 kPa | 1004.9
1351.5 kPa | 1004.8
1364.1 kPa | 1004.9
1377 kPa | 1004.9
1393.1 kPa | 1004.8
1406.3 kPa | 1005
1420 kPa | 1004.9
1433.4 kPa | 1005
1449.5 kPa | 1005
1462.7 kPa | 1005
1476.5 kPa | 1004.8
1492.4 kPa | 1005
